Values of other authors in publication PMC1892056, “Barusiban suppresses oxytocin-induced preterm labour in non-human primates” (BMC Pregnancy and Childbirth, 2007).
Several values for one entry are separate records, joined by “and”; a condition that tells them apart may be missing. Equal entries are not always repeated. Where two headings read alike, the source gives them in different places.

Key:
[1] = tested on: pregnant cynomolgus monkeys; design: method as in PMID 16914691; conditions: for Treatment days until delivery / end of treatment: continuous IV infusion from ca. GD 141, daily OT challenge, barusiban group delivered after the end of treatment; for Basal overall IUP before the daily OT challenges compared to control: during continuous barusiban or fenoterol treatment; for Day of delivery: gestational day, barusiban 150 μg kg^-1 h^-1 or fenoterol 3 μg kg^-1 h^-1 continuous infusion from ca. GD 141, daily OT challenge
Text: Background Preterm labour (PTL) is a major cause of neonatal mortality and morbidity, and oxytocin (OT) antagonists are potential tocolytics. Atosiban (TRACTOCILE) is a mixed vasopressin V1A/OT antagonist registered for acute treatment of PTL in Europe. […] Barusiban is a selective OT antagonist which has reached clinical development. A monkey model with OT-induced PTL was developed to compare barusiban and atosiban. In addition, the feasibility for long-term treatment of PTL with barusiban was explored.

[2] = tested on: pregnant cynomolgus monkeys
Text: Background Preterm labour (PTL) is a major cause of neonatal mortality and morbidity, and oxytocin (OT) antagonists are potential tocolytics. Atosiban (TRACTOCILE) is a mixed vasopressin V1A/OT antagonist registered for acute treatment of PTL in Europe. Other off-label drugs have serious side effects. Barusiban is a selective OT antagonist which has reached clinical development. A monkey model with OT-induced PTL was developed to compare barusiban and atosiban. In addition, the feasibility for long-term treatment of PTL with barusiban was explored. Methods Conscious pregnant cynomolgus monkeys ... || Figure 2 Oxytocin-induced uterine contractions in cynomolgus monkeys. Individual infusion of 5–90 mU OT kg^-1 h^-1 induced stable uterine contractions of about 15–40 mmHg. No short- or long-term desensitisation of OT-induced contractions was observed. On the background of these stable OT-induced contractions, different tocolytics have been evaluated in terms of their PK/PD characteristics. Here two monkeys were infused in parallel for about 11 hours during the night. The switch-off the lights in the evening (06:00 PM) and switch-on the lights (06:00 AM) is labelled by respective symbols.

[3] = tested on: pregnant cynomolgus monkeys; conditions: for Potency (IC50): calculated PK/PD potency (plasma concentration) for inhibition of OT-induced IUP, IV bolus or infusion; for Duration of action / Efficacy (decrease in IUP) / Onset of action: overall results for IV high- or low-dose bolus or infusion; for Duration of effect on IUP after high-dose infusion: two-hour high-dose IV infusion, barusiban 150 μg kg^-1 h^-1, atosiban 250 μg kg^-1 h^-1
Text: Table 1 Summary of barusiban and atosiban PK/PD characteristics | column: Barusiban; Atosiban || Background Preterm labour (PTL) is a major cause of neonatal mortality and morbidity, and oxytocin (OT) antagonists are potential tocolytics. Atosiban (TRACTOCILE) is a mixed vasopressin V1A/OT antagonist registered for acute treatment of PTL in Europe. Other off-label drugs have serious side effects. Barusiban is a selective OT antagonist which has reached clinical development. A monkey model with OT-induced PTL was developed to compare barusiban and atosiban. In addition, the feasibility for long-term treatment of PTL with barusiban was explored. Methods Conscious pregnant cynomolgus monkeys ... || Following induction of stable contractions by OT, barusiban or atosiban were administered as high- or low-dose bolus or infusion. […] However, barusiban's duration of action was generally longer than 13–15 hours, while atosiban's effect ceased within 1.5–3 hours (Table 1). The calculated potency of barusiban was about four times higher than the potency of atosiban. || (+ 1 further places)

[4] = pregnant cynomolgus monkeys, IV high- or low-dose bolus or infusion, plasma, LC-MS/MS
Text: Table 1 Summary of barusiban and atosiban PK/PD characteristics | column: Barusiban; Atosiban

human cloned OT receptor = conditions: selectivity OT receptor over V1A receptor
Text: Barusiban is a new long-acting OT receptor antagonist developed for PTL. It is a cyclic heptapeptide and an analogue of endogenous OT designed for longer duration of action. This could provide the convenience of less frequent administration in the clinic. Barusiban has approximately 300-fold greater affinity for the human cloned OT receptor than for the V1A receptor, whereas atosiban binds well to both receptors. […] It has reached phase II of clinical developmen ...

[5] = pregnant cynomolgus monkeys, OT-induced contractions

Compound	Treatment days until delivery / end of treatment [1]	Basal overall IUP before the daily OT challenges compared to control [1]	Day of delivery [1] [days]	Potency (IC50) [3] [µg/mL]	Duration of action [3, 5] [h]	Onset of action [3, 5] [h]	Duration of effect on IUP after high-dose infusion ([3]; n = 3)	Clearance [4] [mL/min/kg]	Distribution [4] [mL/kg]	Half-life [4] [min]	other results
CC(Cc1ccc(O)cc1)NCC(O)c1cc(O)cc(O)c1 (stereo not drawn) [fenoterol, reference compound]	~17 days	unchanged	~154								
oxytocin [OT]											Desensitisation of OT-induced contractions ([2]; OT infusion 5–90 mU kg^-1 h^-1, short- and long-term): no OT-related desensitization occurred; Induced uterine contractions (IUP) ([2]; individual OT infusions at 5–90 mU kg^-1 h^-1): 15–40 mmHg
Atosiban [reference compound]				0.0474	1 to 3	≤0.5 to 1.0	3 h	8.98 to 15.6	359 to 640	27.6 to 39.6	Efficacy (decrease in IUP) [3, 5]: ≤96%; Efficacy (decrease in IUP) ([3]; pregnant cynomolgus monkeys, OT-induced contractions, listed as atosiban): > 95%
Barusiban	approximately 23 days	unchanged	~163	0.0127	> 13 to 15	≤0.5 to 1.5	more than 14 h	0.417 to 1.1	70 to 159	87.6 to 154	Days with statistically lower IUP than the control group ([1]; barusiban 150 μg kg^-1 h^-1 continuous IV infusion, daily 3–6 h OT infusion): 8/17; Rise in overall IUP during OT infusion ([1]; barusiban 150 μg kg^-1 h^-1 continuous infusion, OT control about fourfold increase): 30%; Days with statistically lower IUP than the fenoterol group ([1]; barusiban 150 μg kg^-1 h^-1 versus fenoterol 3 μg kg^-1 h^-1, continuous IV infusion, daily 3–6 h OT infusion): 11/17; Potency relative to atosiban ([3]; calculated potency of barusiban versus atosiban, OT-induced contractions): about four; Reversibility of inhibition of contractions ([3]; high-dose barusiban bolus, then escalating high-dose OT rescue infusion (133–2000 mU kg^-1 h^-1)): reversible with high-dose OT; Tolerability ([3]; pregnant cynomolgus monkeys): well tolerated; Duration of action ([3]; pregnant cynomolgus monkeys, OT-induced contractions, listed as barusiban): 13 to 15 h and > 13 h; Time to decrease in IUP compared with OT control levels ([3]; two hour high-dose IV infusion of barusiban at 150 μg kg^-1 h^-1, n = 3): ≤ 0.5 h; Affinity for the human cloned OT receptor relative to the V1A receptor (human cloned OT receptor): approximately 300 fold
